Results published in US20080051445A1, “2-Thioxothiazolidin-4-one compounds and compositions as antimicrobial and antimalarial agents targeting enoyl-ACP reductase of type II fatty acid synthesis pathway and other cell growth pathways” (NATIONAL INSTITUTE OF IMMUNOLOGY., priority 2006, published 2008).
Converted amounts (≈) assume the structure as drawn.

Columns and labels:
PfENR = PfENR (Plasmodium falciparum, UniProt Q9BH77); test: Inhibition of PfENR (P. falciparum enoyl-ACP reductase, PfFabI), spectrophotometric NADH/crotonoyl-CoA assay; assay type: biochemical
Sequence of PfENR (Q9BH77 entry or part of it): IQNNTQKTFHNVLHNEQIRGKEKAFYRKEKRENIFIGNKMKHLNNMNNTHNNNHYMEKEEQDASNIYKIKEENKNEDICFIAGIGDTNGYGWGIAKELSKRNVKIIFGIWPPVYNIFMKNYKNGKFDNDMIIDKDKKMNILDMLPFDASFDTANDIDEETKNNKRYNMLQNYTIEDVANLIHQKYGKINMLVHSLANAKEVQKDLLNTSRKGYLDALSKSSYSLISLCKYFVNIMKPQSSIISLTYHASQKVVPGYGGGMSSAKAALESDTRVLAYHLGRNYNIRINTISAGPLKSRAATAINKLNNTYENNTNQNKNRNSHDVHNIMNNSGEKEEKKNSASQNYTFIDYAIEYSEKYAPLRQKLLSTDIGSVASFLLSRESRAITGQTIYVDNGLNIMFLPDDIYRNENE
Description: PfENR activity was determined in the presence of various concentrations of the inhibitor (25 nM to 750 nM). The percent inhibition was calculated from the residual PfENR activity and was plotted against log compound NAV-117 used. The sigmoidal curve indicates the best fit for the data and IC50 value was calculated from the graph.
PfENR was assayed at two fixed concentrations -100 μM [·] and 200 μM [<] of crotonoyl CoA in presence of 250 nM of compound NAV-117 and 100 μM of NADH. Ki was calculated from the X-intercept. Plot indicates competitive kinetics with respect to crotonoyl CoA.
200 nM PfENR was assayed in presence of 200 μM crotnoyl CoA, 250 nM compound NAV-117 and 50 μM [·] and 100 μM [<] of NADH. Ki of inhibitor was calculated from the. X-intercept. Plot indicates noncompetitive kinetics with respect to NADH.
Spectrophotometric assay of enzyme activity The activity of the Enoyl-ACP reductase was assayed by following rate of the disappearance of NADH using crotonyl-CoA as a substrate. The assay mixture (100 μl) comprised of 100 μM crotonyl-CoA 100 μM NADH and 1% ethanol in […] buffer, pH 7.5. The kinetic parameters were obtained form the double reciprocal plots.
Enzyme inhibition studies The inhibition studies were carried out by preincubating enoyl ACP reductase with the respective compound and various concentrations of the coenzymes at 4° C. for 5 hours. This was warmed to 25° C. and assay was started by the addition of the crotonyl-CoA. The inhibition constant Ki was determined by using the following equation: v=v0/(1+[I]/Ki)
Kinetics of inhibition of PfENR. We deduced the kinetics of inhibition for NAV-117 with respect to crotonoyl CoA as well as NADH. The reaction velocity was measured at a fixed concentration of substrate varying the inhibitor concentration. A graph of the reciprocal of velocity against inhibitor concentration was plotted. […] The IC50 value was calculated by ploting the residual PfENR activity against log of inhibitor concentration and fitting the data points into a sigmoidal curve (FIG. 3). […]

[1] = test system: Chloroquine-sensitive Plasmodium falciparum FCK2 strain; test: In vitro whole-cell assay against Plasmodium falciparum in red blood cell cultures; assay type: cell-based
Description: Compound NAV 117 was assayed for in vitro growth inhibition of Plasmodium falciparum by incubating the cultures with different concentrations of the inhibitors in Me2SO (final concentration, 0.05%). The cultures were checked for growth inhibition by microscopic examination by assessing the parasitemia at every 48 h (●) and 96 h (∘). The average of three data sets has been plotted, and the error bars are shown.
In vitro whole-cell assay against Plasmodium falciparum. Antimalarial activity of NAV-117 was checked towards the Chloroquine-sensitive Plasmodium falciparum FCK2 strain in red blood cell cultures.

## O=C1/C(=C/c2ccc(O)c(O)c2)SC(=S)N1c1ccccc1 [NAV-117, 5-(3,4-Dihydroxy-benzylidene)-3-phenyl-2-thioxo-thiazolidin-4-one]
PfENR; 100 μM and 200 μM crotonoyl CoA, 100 μM NADH (FIG. 4)
  inhibition kinetics with respect to crotonoyl CoA (Dixon plot): competitive
PfENR; 200 μM crotonoyl CoA, 50 μM and 100 μM NADH (FIG. 5)
  inhibition kinetics with respect to NADH (Dixon plot): noncompetitive
PfENR; inhibitor 25 nM to 750 nM, sigmoidal fit (FIG. 3), read-out: IC50 value (residual PfENR activity against log of inhibitor concentration) (converted)
  IC50: 242 nM
[1]; Erythrocyte, after 96 h, non-linear regression (FIG. 6), read-out: IC50 value for growth inhibition of the parasite
  IC50: ~750 nM
[1]; read-out: MIC (minimum inhibitory concentration)
  MIC: 2.5 µM (≈ 0.824 µg/mL)
